Measured values from patent US8741954B2, “Synergistic enhancement of calcium propionate” (ViraTox, L.L.C., priority 2007, dated 2014).

How the values were obtained:
[1] = test system: Aspergillus niger (ATCC #6275), Chaetomium globosum (ATCC #6205) and Aspergillus terreus (ATCC #10690) suspensions; assay: TAPPI T 487 pm-99 fungal resistance of treated paper; format: cell-based; settings: treated Whatman paper coupons, 28° C., 21 day test, observed weekly
Experimental: This method is used to determine the resistance of paper and paperboard to fungal growth in ideally suited controlled conditions of light, temperature, moisture, and food supply. Treated 50 mm test coupons of paper are placed on a surface of test agar, flooded with a test inoculum of fungal spores, and incubated to determine fungal resistance. The rating that is provided follows an established protocol to determine the degree of mold growth on a rating scale reported as 1) not fungal resistant; 2) moderately fungal resistant; and 3) resistant.
Challenges of treated porous surfaces, represented by selected samples of untreated paper product specified as Whatman filter paper #4 and paper product specified as Whatman filter paper #4 treated with a solution of fungicides, are exposed to designated fungal suspensions known to cause failure under certain use conditions. The test samples are prepared according to T 487 pm-99 by aseptically removing pre-sterilized 50 mm paper coupons, previously equilibrated to room temperature, and then placed in a controlled chamber at 28+/−1° C. (82.40 F) and 95%-98% RH. The chamber is fitted with a tray filled with a salt solution to maintain humidity control. The test ensues continuously for 21 days and samples are observed weekly. The panels are rated each week according to the appearance of fungal growth.
This series of tests according to the TAPPI T 487 pm-99 protocol were conducted with multiple specimens of treated and untreated (Control) paper substrates with the specified fungal species of Aspergillus niger (ATCC #6275), Chaetomium globosum (ATCC #6205), and Aspergillus terreus (ATCC #10690) suspensions. The suspensions of inoculum were harvested from 14 day potato dextrose agar cultures into sterile water, combining the culture suspensions from each fungal genus and adjusting to concentrations of 10^6/ml. Triplicate substrate samples were then prepared from sheets of cellulose fiber papers (Whatman) cut into 50 mm squares and steam sterilized. The sterilized paper coupons were immersed in a solution of each challenge solution, allowed to soak for ten minutes, removed and placed into aluminum drying trays in a drying oven for 24 hours at 67° C. The test papers were placed onto the surface of prepared agar plates containing mineral-salt agar as outlined in T 487 pm-99. Two plies of paper were treated as a single test specimen and were directly pipetted with 1 ml of fungal suspension on the surface of each test coupon. The plates were then inverted and placed into humid incubation chambers and incubated at 28° C.+/−1 C for 21 days. Observations for growth were conducted on successive weekly schedules as well as verification of test inocula to distinguish contaminants or naturally occurring molds from actual challenge organisms. Growth was defined as sporulating, hyphael appearances directly from the paper substrate. The following comparative table depicts the various solutions and resistance results: […]

[2] = test system: suspension of fungal spores of Chaetomium globosum ATCC #6205, Aspergillus niger ATCC #6275 and Aspergillus terreus ATCC #10690; assay: Disk diffusion method of determining susceptibility of fungi (developed from the Kirby-Bauer method); format: cell-based
Experimental: A disk diffusion method of determining susceptibility of fungi to Maquat 2525M 50% was developed from the Kirby-Bauer Bactericidal Disk Diffusion Method. […] This method was utilized as a screening method to achieve a rapid means of fungal inhibition after 5 days of incubation.
The inoculum was composed of a suspension of fungal spores harvested from one week cultures of ATCC #6205-Chaetomium globosum; ATCC #6275-Aspergillus niger; and, ATCC #10690-Aspergillus terreus. Once the plates were seeded with inoculum, DIFCO Concentration Disks (¼″) were impregnated with a 0.5% solution of Maquat 2525M 50%, allowed to air dry in sterile petri dishes and placed at equidistant locations on each plate. At the end of the five day incubation at 30° C., 5 plates containing four disks each were examined visually and microscopically.

Structure (SMILES)	Days in Incubation [1] [days]	Resistance Grade [1]	Resistance grade of specimens ([2]; DIFCO disks impregnated with solution (Maquat 0.5%, calcium propionate 2.5%, sodium carboxymethylcellulose 0.5%, cetylpyridinium chloride 0.125%), potato dextrose agar, 5 days at 30° C.)	Growth on disks, visual and microscopic examination ([2]; after the 5 day incubation period)
CCC(=O)O [1.5% propionic acid, propionic acid]	9	Not resistant	–	–
CCCCCCCCCCCCCCCC[n+]1ccccc1 [1.25% cetylpyridinium chloride, cetylpyridinium chloride]	15	–	–	–
c1ccc2[nH]c(-c3cscn3)nc2c1 [Thiabendazole (TBZ) 1.0% Merck AgVet, Thiabendazole]	17	Moderately resistant	–	–
CCC(=O)[O-].CCC(=O)[O-].[Ca+2] [calcium propionate]	8	Not resistant	No Resistance	occluded with profuse growth
